Activity calls are given as the source filed them. The calls are words filed in the database; no cut-off is given here.
Tests used:
5'-nucleotidase = target: T1, 5'-nucleotidase (Rattus norvegicus, UniProt P21588); experiment: Inhibition of rat Ecto-5'-nucleotidase transfected in COS7 cells preincubated for 10 mins followed by AMP addition measured after 10 mins; format: cell-based, COS-7
T1 sequence (P21588 whole entry): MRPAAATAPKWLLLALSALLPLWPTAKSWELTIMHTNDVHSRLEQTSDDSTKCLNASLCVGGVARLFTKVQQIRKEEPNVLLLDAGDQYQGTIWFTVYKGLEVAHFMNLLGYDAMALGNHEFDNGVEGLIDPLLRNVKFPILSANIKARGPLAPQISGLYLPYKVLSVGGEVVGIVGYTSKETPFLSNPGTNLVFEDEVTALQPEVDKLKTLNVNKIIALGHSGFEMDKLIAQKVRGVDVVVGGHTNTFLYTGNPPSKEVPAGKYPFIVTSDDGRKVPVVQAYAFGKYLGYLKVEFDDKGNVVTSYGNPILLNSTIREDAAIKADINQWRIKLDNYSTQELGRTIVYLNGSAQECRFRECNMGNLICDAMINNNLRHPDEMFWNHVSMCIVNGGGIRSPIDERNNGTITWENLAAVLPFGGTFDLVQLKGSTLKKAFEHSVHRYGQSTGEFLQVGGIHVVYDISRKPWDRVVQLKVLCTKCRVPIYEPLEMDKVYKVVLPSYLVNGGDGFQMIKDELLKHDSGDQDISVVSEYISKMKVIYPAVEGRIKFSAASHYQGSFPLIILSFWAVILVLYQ

[1] = target: T2, 5'-nucleotidase (Rattus norvegicus) (UniProt P21588); settings: COS-7, 0.5 to 2 uM
T2 sequence (whole entry): T1 sequence (P21588 whole entry)
Description: Uncompetitive inhibition of rat Ecto-5'-nucleotidase transfected in COS7 cells at 0.5 to 2 uM preincubated for 10 mins followed by AMP addition measured after 10 mins by double-reciprocal plot analysis

SMILES: CCOC1Oc2c(Br)cc(Br)cc2C(=O)/C1=C\Nc1cccc(S(N)(=O)=O)c1 (racemic)
- IC50 (5'-nucleotidase): 583 nM
- Ki (5'-nucleotidase): 27 nM
- inhibition [1]: Active
